Data reported in US20250313574A1, “SIALIC ACID DERIVATIVES AND METHODS OF USING SAME” (EISAI R&D MANAGEMENT CO., LTD., priority 2022, published 2025).
Like-named read-outs stand apart in the source and are kept apart here.

Tests used:
[1] = rcm bond, 25-membered ring, toluene
[2] = biological target: Recombinant human CD33 protein (Homo sapiens (Human), UniProt P20138); test: CD33 competitive binding assay for HTS drug screen (fluorescent multivalent sialic acid probe)
How it was run: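 Inhibition was read as reduced retention of a fluorescent multivalent sialic acid complex (final 5 μM neutravidin, 15 μM A-375, 5 μM biotin-4-FITC) on plate-immobilized human CD33. Compound was added first, the probe followed for 30 min at room temperature in PBS with 0.2% Tween-20 and 0.5% BSA, and FITC was measured after a wash.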

[3] = biological target: Recombinant Human Siglec-3/CD33 protein (His-CD33) (Homo sapiens (Human), UniProt P20138); test: Differential scanning fluorimetry (DSF) thermal shift assay; assay type: binding
[4] = difference in thermal melt of CD33 protein (0.5 μM) with 50 μM compound
[5] = thermal melt shift of 0.5 μM CD33 protein with 50 μM compound

Sequence of Recombinant Human Siglec-3/CD33 protein (His-CD33) (P20138 18-259): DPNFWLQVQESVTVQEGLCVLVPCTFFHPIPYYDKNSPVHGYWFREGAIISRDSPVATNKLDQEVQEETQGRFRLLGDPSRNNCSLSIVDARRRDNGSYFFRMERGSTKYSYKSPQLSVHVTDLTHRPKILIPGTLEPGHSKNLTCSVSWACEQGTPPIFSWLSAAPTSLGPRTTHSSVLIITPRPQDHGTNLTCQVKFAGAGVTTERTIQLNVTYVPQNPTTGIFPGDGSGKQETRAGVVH
Sequence of Recombinant human CD33 protein (P20138 18-259): as above

Compound | ring closure, isolated yield ([1]; from C=CCCCCC(=O)NCCCOc1c(C)cc(C(=O)NC[C@@H](OC(C)=O)[C@@H](OC(C)=O)[C@@H]2O[C@@](CC=C)(C(=O)OCc3ccccc3)C[C@H](OC(C)=O)[C@H]2NC(=O)OC(C)(C)C)cc1C, Hoveyda-Grubbs II, 2.15 mM, 90.0 °C, 0.58 h) | ring closure, isolated yield ([1]; from C=CCOC[C@H](COCCCOc1c(C)cc(C(=O)NC[C@@H](OC(C)=O)[C@@H](OC(C)=O)[C@@H]2O[C@@](CC=C)(C(=O)OC)C[C@H](OC(C)=O)[C@H]2NC(C)=O)cc1C)NC(=O)OC(C)(C)C, Hoveyda-Grubbs II/quinone, 1.12 mM, 100.0 °C, 3.0 h) | EC50 [2] | DSF (dTmD) [3, 4] | DSF (dTmD) [3, 5]
CC(=O)O[C@H]1[C@@H]2O[C@](C(=O)OCc3ccccc3)(CC=CCCCCC(=O)NCCCOc3c(C)cc(cc3C)C(=O)NC[C@H]1OC(C)=O)C[C@H](OC(C)=O)[C@H]2NC(=O)OC(C)(C)C | 41% |  |  |  | 
COC(=O)[C@]12CC=CCOC[C@@H](NC(=O)OC(C)(C)C)COCCCOc3c(C)cc(cc3C)C(=O)NC[C@@H](OC(C)=O)[C@@H](OC(C)=O)[C@H](O1)[C@H](NC(C)=O)[C@@H](OC(C)=O)C2 |  | 84% |  |  | 
CC(=O)N[C@H]1[C@H]([C@H](O)[C@H](O)CNC(=O)c2cc(C)c(O)c(C)c2)O[C@@](CC2OC(C)(C)O[C@H]2c2cc(N3CCCC3=O)ccc2C)(C(=O)O)C[C@@H]1O (some centres unmarked) [A-318] |  |  | 0.13 µM | 7.4 °C | 
CC(=O)N[C@H]1[C@H]([C@H](O)[C@H](O)CNC(=O)c2cc(C)c(O)c(C)c2)O[C@@](C/C=C/c2cccc(CNC(=O)c3cccc(NC(C)(C)C)c3)c2)(C(=O)O)C[C@@H]1O [A-251] |  |  | 9.79 µM | 4.3 °C | 
Cc1cc(C(=O)NC[C@@H](O)[C@@H](O)[C@@H]2O[C@@](OC3CCCCC3NC(=O)Cn3cc(CNC(=O)c4cccc(C#N)c4)nn3)(C(=O)O)C[C@H](O)[C@H]2NC(=O)Cn2cc(C3CCCCC3)nn2)cc(C)c1O (some centres unmarked) [A-330] |  |  | 4.81 µM | 5.0 °C | 
Cc1cc2cc(C)c1OCCO[C@@H]1C[C@H](OC/C=C/CC[C@]3(C(=O)O)C[C@H](O)[C@@H](NC(=O)Cn4cc(C5CCCCC5)nn4)[C@@H](O3)[C@H](O)[C@H](O)CNC2=O)N(C(=O)C2CCCOC2)C1 (some centres unmarked) [A-358] |  |  | 9.43 µM | 3.5 °C | 
Cc1ccc(CNC(=O)C2CCCOC2)cc1/C=C/C[C@]1(C(=O)O)C[C@H](O)[C@@H](NC(=O)Cn2cc(C3CCCCC3)nn2)[C@H]([C@H](O)[C@H](O)CNC(=O)c2cc(C)c(O)c(C)c2)O1 (some centres unmarked) [A-286] |  |  | 2.84 µM | 2.2 °C | 
CC(=O)N[C@H]1[C@H]([C@H](O)[C@H](O)CNC(=O)c2cc(Cl)[nH]n2)O[C@@](CCN2CCOC[C@@]23CCN(C(=O)OC(C)(C)C)C3)(C(=O)O)C[C@@H]1O [A-157] |  |  | 0.08 µM |  | 10.3
Cc1cc2cc(C)c1OCCCNC(=O)CCCCCCC[C@]1(C(=O)O)C[C@H](O)[C@@H](NC(=O)Cn3cc(C4CCCCC4)nn3)[C@@H](O1)[C@H](O)[C@H](O)CNC2=O [A-344] |  |  | 18 µM | 1.52 °C | 
CC(=O)N[C@H]1[C@H]([C@H](O)[C@H](O)CNC(=O)c2cc(C)c(O)c(C)c2)O[C@@](C/C=C/c2cccc(CNC(=O)C3CCCOC3)c2)(C(=O)O)C[C@@H]1O (some centres unmarked) [A-293] |  |  | 7.94 µM | 4.2 °C | 
CC(=O)N[C@H]1[C@H]2O[C@](C(=O)O)(C/C=C/COC[C@@H](NC(=O)[C@H]3CCCOC3)COCCCOc3c(C)cc(cc3C)C(=O)NC[C@@H](O)[C@H]2O)C[C@@H]1O [A-337] |  |  | 14.1 µM | 2.2 °C | 
CC(=O)N[C@H]1[C@H]([C@H](O)[C@H](O)CNC(=O)c2c[nH]c(C)c2)O[C@@](CCN2CCOC[C@@]23CCN(C(=O)OC(C)(C)C)C3)(C(=O)O)C[C@@H]1O [A-113] |  |  | 0.034 µM |  | 11.1
COC(=O)[C@@]1(CCN2CCOC[C@@]23CCN(C(=O)OC(C)(C)C)C3)CCC[C@H](C[C@H](O)CNC(=O)c2cc(C)c3[nH]ccc3c2)O1 [A-207] |  |  | 3.75 µM | 5.0 °C | 
CC(=O)N[C@H]1[C@H]([C@H](O)[C@H](O)CNC(=O)c2cccc(SC(F)(F)F)c2)O[C@@](CCN2CCOC[C@@]23CCN(C(=O)OC(C)(C)C)C3)(C(=O)O)C[C@@H]1O [A-169] |  |  | 4.72 µM |  | 6.2
CC(=O)N[C@H]1[C@H]([C@H](O)[C@H](O)CNC(=O)c2cc(C)c(O)c(C)c2)O[C@@](C/C=C/c2cccc(CN(C)C(=O)C3CCCOC3)c2)(C(=O)O)C[C@@H]1O (some centres unmarked) [A-292] |  |  | 3.02 µM | 4.0 °C | 
CC(=O)N[C@H]1[C@H]([C@H](O)[C@H](O)CNC(=O)c2ccc(C(F)(F)F)c(C)c2)O[C@@](CCN2CCOC[C@@]23CCN(C(=O)OC(C)(C)C)C3)(C(=O)O)C[C@@H]1O [A-144] |  |  | 0.23 µM |  | 11.0
CC(=O)N[C@H]1[C@H]([C@H](O)[C@H](O)CNC(=O)c2cc(C)c(O)c(C)c2)O[C@@](C/C=C/c2cccc(CNC(=O)c3cccc(Nc4nccs4)c3)c2)(C(=O)O)C[C@@H]1O [A-241] |  |  | 7.97 µM | 5.3 °C | 
CC(=O)N[C@H]1[C@H]([C@H](O)[C@H](O)CNC(=O)c2cc(C)c(O)c(C)c2)O[C@@](CCN2CCOC[C@@]23CCN(C(=O)NC(C)C)C3)(C(=O)O)C[C@@H]1O [A-048] |  |  | 0.024 µM |  | 12.5

Compound | ring closure, isolated yield ([1]; from C=CCCCCC(=O)NCCCOc1c(C)cc(C(=O)NC[C@@H](OC(C)=O)[C@@H](OC(C)=O)[C@@H]2O[C@@](CC=C)(C(=O)OCc3ccccc3)C[C@H](OC(C)=O)[C@H]2NC(=O)OC(C)(C)C)cc1C, Hoveyda-Grubbs II, 2.15 mM, 90.0 °C, 0.58 h) | ring closure, isolated yield ([1]; from C=CCOC[C@H](COCCCOc1c(C)cc(C(=O)NC[C@@H](OC(C)=O)[C@@H](OC(C)=O)[C@@H]2O[C@@](CC=C)(C(=O)OC)C[C@H](OC(C)=O)[C@H]2NC(C)=O)cc1C)NC(=O)OC(C)(C)C, Hoveyda-Grubbs II/quinone, 1.12 mM, 100.0 °C, 3.0 h) | EC50 [2] | DSF (dTmD) [3, 4] | DSF (dTmD) [3, 5]
CC(=O)N[C@H]1[C@H]([C@H](O)[C@H](O)CNC(=O)c2cc(C)c(O)c(C)c2)O[C@@](CC2OC(C)(C)O[C@H]2c2ccccc2CNC(=O)OC(C)(C)C)(C(=O)O)C[C@@H]1O (some centres unmarked) [A-310] |  |  | 3.24 µM | 3.5 °C | 
CC(=O)N[C@H]1[C@H]([C@H](O)[C@H](O)CNC(=O)c2cc(C)c3[nH]ccc3c2)O[C@@](CCN2CCOC[C@@]23CCN(C(=O)OC(C)(C)C)C3)(C(=O)O)C[C@@H]1O [A-109] |  |  | 0.006 µM |  | 16.6
CC(=O)N[C@H]1[C@H]([C@H](O)[C@H](O)CNC(=O)c2cc(C)c(O)c(C)c2)O[C@@](C/C=C/c2cccc(CNC(=O)c3ccc4[nH]c(-c5cccn5-c5ncccn5)nc4c3)c2)(C(=O)O)C[C@@H]1O [A-252] |  |  | 0.578 µM | 7.6 °C | 
CC(=O)N[C@H]1[C@H]([C@H](O)[C@H](O)CNC(=O)c2cc(C)c(O)c(C)c2)O[C@@](C/C=C/c2cccc(CNC(=O)c3ccc4[nH]c(C)c(C)c4c3)c2)(C(=O)O)C[C@@H]1O [A-238] |  |  | 0.347 µM | 9.2 °C | 
CC(=O)N[C@H]1[C@H]([C@H](O)[C@H](O)CNC(=O)c2cc(C)c(O)c(C)c2)O[C@@](CC2OC(C)(C)O[C@@H]2c2ccc(C)c(N3CCCC3=O)c2)(C(=O)O)C[C@@H]1O (some centres unmarked) [A-320] |  |  | 0.96 µM | 4.8 °C | 
CC(=O)N[C@H]1[C@H]([C@H](O)[C@H](O)CNC(=O)c2cc(C)c(O)c(C)c2)O[C@@](C/C=C/c2cnc(CNC(=O)C3CCCOC3)s2)(C(=O)O)C[C@@H]1O (some centres unmarked) [A-294] |  |  | 4.61 µM | 4.2 °C | 
CC(=O)N[C@H]1[C@H]([C@H](O)[C@H](O)CNC(=O)c2ccc3cn[nH]c3c2)O[C@@](CCN2CCOC[C@@]23CCN(C(=O)OC(C)(C)C)C3)(C(=O)O)C[C@@H]1O [A-151] |  |  | 0.206 µM |  | 8.9
CC(=O)N[C@H]1[C@H]([C@H](O)[C@H](O)CNC(=O)c2ccc(C(F)(F)F)c(C(F)(F)F)c2)O[C@@](CCN2CCOC[C@@]23CCN(C(=O)OC(C)(C)C)C3)(C(=O)O)C[C@@H]1O [A-167] |  |  | 3.34 µM |  | 7.9
Cc1cc(C(=O)NC[C@@H](O)[C@@H](O)[C@@H]2O[C@@](OC3CCCCC3NC(=O)CNC(=O)COC3CCCC3)(C(=O)O)C[C@H](O)[C@H]2NC(=O)Cn2cc(C3CCCCC3)nn2)cc(C)c1O (some centres unmarked) [A-329] |  |  | 15.2 µM | 1.4 °C | 
Cc1cc(C(=O)NC[C@@H](O)[C@@H](O)[C@@H]2O[C@@](OC3CCCCC3NC(=O)CNC(=O)CC3CCOCC3)(C(=O)O)C[C@H](O)[C@H]2NC(=O)Cn2cc(C3CCCCC3)nn2)cc(C)c1O (some centres unmarked) [A-328] |  |  | 12.3 µM | 1.4 °C | 
CC(=O)N[C@H]1[C@H]([C@H](O)[C@H](O)CNC(=O)c2ccc3c(cnn3C)c2)O[C@@](CCN2CCOC[C@@]23CCN(C(=O)OC(C)(C)C)C3)(C(=O)O)C[C@@H]1O [A-124] |  |  | 0.028 µM |  | 13.4
COc1cc(C(=O)NC[C@@H](O)[C@@H](O)[C@@H]2O[C@@](CCN3CCOC[C@@]34CCN(C(=O)OC(C)(C)C)C4)(C(=O)O)C[C@H](O)[C@H]2NC(C)=O)cc(OC)c1OC [A-148] |  |  | 0.197 µM |  | 9.9
CC(=O)N[C@H]1[C@H]([C@H](O)[C@H](O)CNC(=O)c2ccc3[nH]nc(F)c3c2)O[C@@](CCN2CCOC[C@@]23CCN(C(=O)OC(C)(C)C)C3)(C(=O)O)C[C@@H]1O [A-128] |  |  | 0.05 µM |  | 11.5
CC(=O)N[C@H]1[C@H]([C@H](O)[C@H](O)CNC(=O)c2cc(Br)[nH]n2)O[C@@](CCN2CCOC[C@@]23CCN(C(=O)OC(C)(C)C)C3)(C(=O)O)C[C@@H]1O [A-133] |  |  | 0.046 µM |  | 11.4
CC(=O)N[C@H]1[C@H]([C@H](O)[C@H](O)CNC(=O)c2cc(C)c(O)c(C)c2)O[C@@](CCN2CCCC[C@]23CN(C(=O)OC(C)(C)C)C[C@@H]3CO)(C(=O)O)C[C@@H]1O [A-028] |  |  | 0.159 µM |  | 8.1
CC(=O)N[C@H]1[C@H]2O[C@](C(=O)O)(C/C=C/COC[C@H](NC(=O)C3CCCOC3)COCCOc3c(C)cc(cc3C)C(=O)NC[C@@H](O)[C@H]2O)C[C@@H]1O (some centres unmarked) [A-339] |  |  | 5.91 µM | 4.4 °C | 
CC(=O)N[C@H]1[C@H]([C@H](O)[C@H](O)CNC(=O)c2ccc3[nH]ccc3c2)O[C@@](CCN2CCOC[C@@]23CCN(C(=O)OC(C)(C)C)C3)(C(=O)O)C[C@@H]1O [A-129] |  |  | 0.01 µM |  | 15.0
